Measurements taken from patent publication US20230373989A1, “N-PHENYLAMINOCARBONYL PYRIDINO-, PYRIMIDINO AND BENZO-TROPANES AS MODULATORS OF GPR65” (PATHIOS THERAPEUTICS LIMITED, priority 2020, published 2023).

Each compound was assayed against T1, human recombinant GPR65 (Homo sapiens, UniProt Q8IYL9) (assay: Human GPR65 cAMP HTRF antagonist assay). Conditions: not given.
T1 construct: host or cells: 1321N1 human astrocytoma cells (1321N1-hrGPR65)
T1 sequence (Q8IYL9 whole entry): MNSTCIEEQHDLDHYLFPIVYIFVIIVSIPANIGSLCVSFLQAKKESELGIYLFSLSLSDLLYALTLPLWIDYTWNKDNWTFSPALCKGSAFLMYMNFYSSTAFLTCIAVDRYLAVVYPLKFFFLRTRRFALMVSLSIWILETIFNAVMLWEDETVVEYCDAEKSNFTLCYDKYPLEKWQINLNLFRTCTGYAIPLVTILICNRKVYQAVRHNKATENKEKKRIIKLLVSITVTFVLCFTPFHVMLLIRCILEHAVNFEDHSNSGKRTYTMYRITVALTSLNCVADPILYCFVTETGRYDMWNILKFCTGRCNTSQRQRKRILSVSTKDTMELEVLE
Type: cell-based
How it was run: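 1321N1 astrocytoma cells stably expressing GPR65 were preincubated with compound for 30 min at room temperature in KRH pH 7.6 with 1 mM IBMX and 200 μM EDTA. They were then stimulated at assay pH 7.2 for 30 min, with controls at pH 7.9. cAMP was read by HTRF (665/620 nm), normalised to controls and fitted by 4-parameter logistic to give IC50.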
`O=C(Nc1cc(C(F)(F)F)c(Cl)cc1F)N1[C@H]2CC[C@@H]1c1ccnc(F)c1C2` [Compound 126, (5R,8S)-N-(4-Chloro-2-fluoro-5-(trifluoromethyl)phenyl)-1-fluoro-6,7,8,9-tetrahydro-5H-5,8-epiminocyclohepta[c]pyridine-10-carboxamide] gave an IC50 of less than 500 nM.
`O=C(Nc1ccc(OC(F)F)c(Cl)c1)N1[C@H]2CC[C@@H]1c1c[nH]c(=O)cc1C2` [Compound 127, (6S,9R)-N-(3-Chloro-4-(difluoromethoxy)phenyl)-3-oxo-3,5,6,7,8,9-hexahydro-2H-6,9-epiminocyclohepta[c]pyridine-10-carboxamide] was tested, and the IC50 was less than 500 nM.
`O=C(Nc1ccc(OC(F)(F)F)c(Cl)c1)N1[C@H]2CC[C@@H]1c1c[nH]c(=O)cc1C2` [Compound 128, (6S,9R)-N-(3-Chloro-4-(trifluoromethoxy)phenyl)-3-oxo-3,5,6,7,8,9-hexahydro-2H-6,9-epiminocyclohepta[c]pyridine-10-carboxamide] gave an IC50 of less than 500 nM.
In the case of `O=C(Nc1cc(C(F)(F)F)c(Cl)cc1F)N1[C@H]2CC[C@@H]1c1c[nH]c(=O)cc1C2` [Compound 129, (6S,9R)-N-(4-Chloro-2-fluoro-5-(trifluoromethyl)phenyl)-3-oxo-3,5,6,7,8,9-hexahydro-2H-6,9-epiminocyclohepta[c]pyridine-10-carboxamide], the IC50 is reported as less than 500 nM.
Compound `O=C(Nc1ccc(OC(F)F)c(Cl)c1)N1[C@H]2CC[C@@H]1c1ccnc(F)c1C2` [Compound 133, (5R,8S)—N-(3-Chloro-4-(difluoromethoxy)phenyl)-1-fluoro-6,7,8,9-tetrahydro-5H-5,8-epiminocyclohepta[c]pyridine-10-carboxamide] has an IC50 of less than 500 nM.
Work on `C[C@H]1c2cnccc2[C@H]2CC[C@@H]1N2C(=O)Nc1ccc(Cl)c(Cl)c1` [Compound 134, (5R,8S,9S)-N-(3,4-Dichlorophenyl)-9-methyl-6,7,8,9-tetrahydro-5H-5,8-epiminocyclohepta[c]pyridine-10-carboxamide] yielded an IC50 of less than 500 nM.
Work on `O=C(Nc1ccc(Cl)c(Cl)c1)N1[C@@H]2CC[C@H]1[C@@H](F)c1cc(F)ncc12` [Compound 140, (5S,6S,9R)-N-(3,4-Dichlorophenyl)-3,5-difluoro-6,7,8,9-tetrahydro-5H-6,9-epiminocyclohepta[c]pyridine-10-carboxamide] yielded an IC50 of less than 500 nM.
`O=C(Nc1cc(Cl)c(Br)cc1F)N1[C@H]2CC[C@@H]1c1c[nH]c(=O)cc1C2` [Compound 141, (6S,9R)-N-(4-Bromo-5-chloro-2-fluorophenyl)-3-oxo-3,5,6,7,8,9-hexahydro-2H-6.9-epiminocyclohepta[c]pyridine-10-carboxamide] gave an IC50 of less than 500 nM.
`O=C(Nc1cc(Br)c(Cl)cc1F)N1[C@H]2CC[C@@H]1c1c[nH]c(=O)cc1C2` [Compound 142, (6S,9R)-N-(5-Bromo-4-chloro-2-fluorophenyl)-3-oxo-3,5,6,7,8,9-hexahydro-2H-6,9-epiminocyclohepta[c]pyridine-10-carboxamide] gave an IC50 of less than 500 nM.
`O=C(Nc1ccc(Br)c(Cl)c1)N1[C@H]2CC[C@@H]1c1c[nH]c(=O)cc1C2` [Compound 143, (6S,9R)-N-(4-Bromo-3-chlorophenyl)-3-oxo-3,5,6,7,8,9-hexahydro-2H-6,9-epiminocyclohepta[c]pyridine-10-carboxamide] showed an IC50 of less than 500 nM.
`O=C(Nc1cc(Br)c(C(F)(F)F)cc1F)N1[C@H]2CC[C@@H]1c1c[nH]c(=O)cc1C2` [Compound 144, (6S,9R)-N-(5-Bromo-2-fluoro-4-(trifluoromethyl)phenyl)-3-oxo-3,5,6,7,8,9-hexahydro-2H-6,9-epiminocyclohepta[c]pyridine-10-carboxamide] showed an IC50 of less than 500 nM.
`O=C(Nc1ccc(Cl)c(Br)c1)N1[C@H]2CC[C@@H]1c1c[nH]c(=O)cc1C2` [Compound 145, (6S,9R)-N-(3-Bromo-4-chlorophenyl)-3-oxo-3,5,6,7,8,9-hexahydro-2H-6.9-epiminocyclohepta[c]pyridine-10-carboxamide] gave an IC50 of less than 500 nM.
`O=C(Nc1cc(Cl)c(C(F)(F)F)cc1F)N1[C@H]2CC[C@@H]1c1c[nH]c(=O)c(F)c1C2` [Compound 146, (6S,9R)-N-(5-Chloro-2-fluoro-4-(trifluoromethyl)phenyl)-4-fluoro-3-oxo-3,5,6,7,8,9-hexahydro-2H-6,9-epiminocyclohepta[c]pyridine-10-carboxamide] was tested, and the IC50 was less than 500 nM.
For `O=C(Nc1cc(Cl)c(C(F)(F)F)cc1F)N1[C@@H]2CC[C@H]1c1c[nH]c(=O)c(F)c1C2` [Compound 147, (6R,9S)-N-(5-Chloro-2-fluoro-4-(trifluoromethyl)phenyl)-4-fluoro-3-oxo-3,5,6,7,8,9-hexahydro-2H-6,9-epiminocyclohepta[c]pyridine-10-carboxamide], the IC50 was less than 500 nM.
For `O=C(Nc1cc(Cl)c(Cl)cc1O)N1[C@H]2CC[C@@H]1c1ccnc(F)c1C2` [Compound 149, (5R,8S)—N-(4,5-Dichloro-2-hydroxyphenyl)-1-fluoro-6,7,8,9-tetrahydro-5H-5,8-epiminocyclohepta[c]pyridine-10-carboxamide], the IC50 was less than 500 nM.
`N#Cc1cc(NC(=O)N2[C@H]3CC[C@@H]2c2ccnc(F)c2C3)ccc1C(F)(F)F` [Compound 151, (5R,8S)-N-(3-cyano-4-(trifluoromethyl)phenyl)-1-fluoro-6,7,8,9-tetrahydro-5H-5,8-epiminocyclohepta[c]pyridine-10-carboxamide] was tested, and the IC50 was less than 500 nM.
For `O=C(Nc1ccc(C(F)(F)F)c(Br)c1)N1[C@H]2CC[C@@H]1c1ccnc(F)c1C2` [Compound 153, (5R,8S)-N-(3-Bromo-4-(trifluoromethyl)phenyl)-1-fluoro-6,7,8,9-tetrahydro-5H-5,8-epiminocyclohepta[c]pyridine-10-carboxamide], the IC50 was less than 500 nM.
`C=CC(=O)Nc1ccc(NC(=O)N2[C@H]3CC[C@@H]2c2ccnc(F)c2C3)cc1Cl` [Compound 179, (5R,8S)-N-(4-Acrylamido-3-chlorophenyl)-1-fluoro-6,7,8,9-tetrahydro-5H-5,8-epiminocyclohepta[c]pyridine-10-carboxamide] showed an IC50 of 500 to 5000 nM.

Same assay, conditions: 1321N1-hrGPR65 cells, assay pH 7.2, cAMP HTRF; read-out: hGPR65 IC50 (activity class)
Compound `COC(=O)c1ccc(NC(=O)N2[C@H]3CC[C@@H]2c2c[nH]c(=O)cc2C3)cc1Cl` [Compound 130, Methyl 2-chloro-4-((6S,9R)-3-oxo-3,5,6,7,8,9-hexahydro-2H-6,9-epiminocyclohepta[c]pyridine-10-carboxamido)benzoate] has an IC50 of 500 to 5000 nM.
`COC(=O)c1cc(NC(=O)N2[C@H]3CC[C@@H]2c2c[nH]c(=O)cc2C3)ccc1Cl` [Compound 131, Methyl 2-chloro-5-((6S,9R)-3-oxo-3,5,6,7,8,9-hexahydro-2H-6,9-epiminocyclohepta[c]pyridine-10-carboxamido)benzoate] showed an IC50 of 500 to 5000 nM.
`COC(=O)c1cc(NC(=O)N2[C@H]3CC[C@@H]2c2c[nH]c(=O)cc2C3)c(F)cc1Cl` [Compound 132, Methyl 2-chloro-4-fluoro-5-((6S,9R)-3-oxo-3,5,6,7,8,9-hexahydro-2H-6,9-epiminocyclohepta[c]pyridine-10-carboxamido)benzoate] was tested, and the IC50 was 500 to 5000 nM.
`Cn1cc2c(cc1=O)C[C@@H]1CC[C@H]2N1C(=O)Nc1ccc(Cl)c(Cl)c1` [Compound 150, (6S,9R)—N-(3,4-Dichlorophenyl)-2-methyl-3-oxo-3,5,6,7,8,9-hexahydro-2H-6,9-epiminocyclohepta[c]pyridine-10-carboxamide] showed an IC50 of 500 to 5000 nM.
